Here are results for one molecule from BindingDB's records for doi:10.1016/j.bioorg.2017.03.006 (CSIR-Indian Institute of Chemical Biology, 2017).

This experiment deals with Alpha-glucosidase MAL32 (Saccharomyces cerevisiae (strain ATCC 204508 / S288c), UniProt P38158). Put plainly: α-Glucosidase Inhibition Assay. The following applies: pH 6.8; 37 °C. On the procedure: Briefly, the sample solution (25 μL, 1.0 mM solution in DMSO) was mixed with enzyme solution (25 μL, 0.5 U/mL prepared in 0.1 M phosphate buffer, pH 6.8). […] After the incubation, the substrate p-nitrophenyl α-D-glucopyranoside (25 μL, 0.5 mM, 0.1 Mphosphate buffer, pH 6.8) was added to the mixture and allowed to incubate at 37 ± 1 °C for 30 min. The reaction was then terminated by the addition of aqueous solution of sodium carbonate (100 μL, 0.2 M). […] The uninhibited enzyme solution was taken as blank and an appropriate DMSO control was used. […] The concentration of DMSO in the final solution was maintained below 5.0% so that the enzyme activity was not destroyed.
Chain of Alpha-glucosidase MAL32 (P38158 whole entry): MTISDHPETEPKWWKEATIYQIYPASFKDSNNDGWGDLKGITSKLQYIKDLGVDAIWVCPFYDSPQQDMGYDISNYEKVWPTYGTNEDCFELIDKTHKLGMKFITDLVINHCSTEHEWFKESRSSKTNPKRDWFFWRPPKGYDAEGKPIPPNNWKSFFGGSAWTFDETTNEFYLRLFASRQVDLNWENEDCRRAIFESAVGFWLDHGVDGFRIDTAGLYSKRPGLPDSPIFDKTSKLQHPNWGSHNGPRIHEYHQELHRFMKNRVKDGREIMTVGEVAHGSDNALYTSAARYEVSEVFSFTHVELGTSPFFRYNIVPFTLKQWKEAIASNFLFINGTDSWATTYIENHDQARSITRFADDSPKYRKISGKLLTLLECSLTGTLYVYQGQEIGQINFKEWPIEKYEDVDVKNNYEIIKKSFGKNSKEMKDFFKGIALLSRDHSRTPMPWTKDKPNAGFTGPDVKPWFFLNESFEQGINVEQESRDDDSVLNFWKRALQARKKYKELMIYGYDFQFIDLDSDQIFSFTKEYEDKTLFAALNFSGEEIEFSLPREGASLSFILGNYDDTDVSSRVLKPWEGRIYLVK

The structures appear in SMILES notation.

As for `O=C(CCc1cn(-c2ccc(O)cc2)nn1)N[C@@H]1OC(CO)[C@@H](O)C(O)C1O` (stereo partly drawn) [3-[1-(4-Hydroxyphenyl)-1H-[1,2,3]triazol-4-yl]-N-(2,3,4,6-tetra-O-acetyl-β-D-glucopyranosyl)propanamide (4f)], the IC50 (in general, the midpoint of a concentration-inhibition curve) stood at 148 µM.
